Assay results published in EP4786467A1, “QUINOLINONE COMPOUND, PREPARATION METHOD THEREFOR AND USE THEREOF” (Vigonvita Life Sciences Co., Ltd., priority 2023, dated 2025).

System: Male C57 mice
Test: Forced Swim Test
Assay type: in vivo
Settings: 10 mg/kg, intraperitoneally, 0.5h after administration; compared to the solvent control group; Figure 1
Procedure: Drugs to be tested: The compounds of the present invention and the positive control compound (vortioxetine) were mixed with 5% DMSO, then mixed with 5% Solutol® HS 15, and then 90% physiological saline was added to prepare a solution of appropriate concentration. The solution was prepared immediately before use.
Animal: Male C57 mice, approximately 22g. Animals were randomly divided into a blank control group and each test drug group, with 8 animals in each group. Mice in each group were intraperitoneally injected with either the solvent or the test drug.
Experimental Procedure: Forced swimming test was performed on the mice 0.5h after drug administration. The water level in the forced swimming device was 45cm, and the water temperature was 25°C. The mice were placed in the experimental room for 1h to acclimatize before the experiment. Mice were placed in the device at the start of the experiment for 6 minutes, and the entire process was recorded by a camera. Data analysis only considered the immobility time of the mice during the last 4 minutes.

Cc1ccc(Sc2ccccc2N2CCNCC2)c(C)c1 [vortioxetine]
immobility time of mice: significantly reduced the immobility time
